The text below walks through data of paper PMC9594046, “Identification of Histone Peptide Binding Specificity and Small-Molecule Ligands for the TRIM33α and TRIM33β Bromodomains” (ACS Chemical Biology, 2022).

For one assay, the target named is T1, TRIM33α PHD-BRD (Homo sapiens, UniProt Q9UPN9).
T1 sequence (Q9UPN9 888-1127): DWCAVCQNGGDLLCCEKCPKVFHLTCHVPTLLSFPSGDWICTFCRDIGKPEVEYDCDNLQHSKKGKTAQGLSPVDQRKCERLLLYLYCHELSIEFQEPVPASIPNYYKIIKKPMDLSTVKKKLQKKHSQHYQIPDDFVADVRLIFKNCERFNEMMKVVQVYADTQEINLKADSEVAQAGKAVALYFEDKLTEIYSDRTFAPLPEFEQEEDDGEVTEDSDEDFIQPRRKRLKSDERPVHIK
Nature of the assay: AlphaScreen dose-response displacement of biotinylated H3 peptide. Background: In Alpha technology, singlet oxygen from a donor bead excites a nearby acceptor bead.

The next assay concerns the target T2, TRIM24 PHD-BRD (Homo sapiens, UniProt O15164).
T2 sequence (O15164 with tags, fused parts or gaps): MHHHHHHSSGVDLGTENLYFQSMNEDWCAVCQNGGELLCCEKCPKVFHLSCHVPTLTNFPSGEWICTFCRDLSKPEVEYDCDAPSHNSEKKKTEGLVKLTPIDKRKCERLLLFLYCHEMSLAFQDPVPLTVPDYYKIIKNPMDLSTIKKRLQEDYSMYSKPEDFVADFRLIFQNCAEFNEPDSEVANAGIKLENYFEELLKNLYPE
Described as above. Conditions: IC50 binding to the TRIM24 BRD-PHD (AlphaScreen), displacement of H3_1–27K18Ac.

The target of another assay is TRIM24 BRD. To be noted: read-out: TRIM24 Kd (ITC); cited from earlier work.
A further assay deals with BRPF1 BRD. To be noted: read-out: BRPF Kd (ITC); cited from earlier work.

Structures are written as SMILES. pIC50, pKd: −log10 of the molar value.

Protocol for TRIM24 PHD-BRD: (§1) To establish an AlphaScreen assay,[13],[50],[51] the PHD-BRD cassettes of TRIM24 and both TRIM33 isoforms were expressed with an N-terminal His6 tag attached (CD spectra for these constructs are shown in Figure S9).
(§2) Assay buffer was freshly prepared each day by supplementing HEPES buffer with BSA, the pH was
(§3) adjusted to 7.6 and filter sterilized through a 0.22 µm filter, and stored at 4 °C until use.
(§4) steps, the plate was sealed, shaken for 10 sec at 600 rpm on a plate oscillator, and incubated at room
(§5) in triplicate, as point concentrations or serial buffer dilutions from 50 mM DMSO solutions.
(§6) peptide mix (7 µL) was dispensed into each well using a Thermo-Fisher electronic multi-channel
(§7) pipette, and incubated for 30 min. AlphaScreen bead mix (8 µL; 25 µg/mL of acceptor and donor beads)
(§8) was added to each well, taking adequate precautions to avoid light exposure, before being incubated for
(§9) 1 h. The plate was read using a Synergy™ 2 MultiMode Microplate Reader using the built-in
(§10) Single shot screening was performed in triplicate.
(§11) <0.5% DMSO. Inhibition is reported as a reduction in signal arising from peptide-bromodomain
(§12) interaction, normalised to a DMSO control. Signal response curves were obtained for peptides or
(§13) compounds in triplicate, with serial 1:2 dilutions. Samples containing buffer or DMSO in place of
(§14) compound were included in all assays for normalisation. Data were processed by fitting a four-
(§15) parameter equation shown below to calculate IC50 values using GraFit version 7.0.32 or GraphPad Prism
(§16) 𝑌 = 𝑀𝑖𝑛𝑖𝑚𝑢𝑚 + 𝑀𝑎𝑥𝑖𝑚𝑢𝑚 − 𝑚𝑖𝑛𝑖𝑚𝑢𝑚 ,𝑤ℎ𝑒𝑟𝑒 𝑋 = log (𝑐𝑜𝑚𝑝𝑜𝑢𝑛𝑑 𝑐𝑜𝑛𝑐𝑒𝑛𝑡𝑟𝑎𝑡𝑖𝑜𝑛) 1 + 10("#$%&!"’()(*+,, .,/01)
(§17) Assay buffer was prepared as above. For incubation steps, the plate was sealed, shaken for 10 sec at
(§18) 600 rpm on a plate oscillator, and incubated at room temperature in the dark. Peptides (5 µL) were
(§19) dilutions from 100 µM HEPES buffer stock solutions. Protein (7 µL) was dispensed into each well
(§20) using a Thermo-Fisher electronic multi-channel pipette, and incubated for 30 min. AlphaScreen bead
(§21) mix (8 µL; 25 µg/mL of acceptor and donor beads) was added to each well, avoiding light exposure,
(§22) before being incubated for 1 h. The plate was read using a Synergy™ 2 MultiMode Microplate Reader
(§23) Ni2+ chelate acceptor and streptavidin donor beads were prepared as a mixture in a 1:300 or 1:400
(§24) dilution as required (0.005–0.007 mg/mL FAC); biotinylated peptide employed, and final assay
(§25) concentrations were as detailed in table below. Assay well volume was 20 µL.
(§26) Peptides were supplied as 1–9 mg quantities with >95% purity (as determined by HPLC; Cambridge
(§27) Research Biochemicals or Genscript). Residual water and counter ions were predicted to comprise 20%
(§28) of the net mass, and peptides were dissolved to 10, 1.0, and 0.1 mM stocks in buffer (50 mM HEPES,
(§29) 500 mM NaCl; pH 7.6) before being stored at -80 °C in 5 µL aliquots. A terminal tyrosine residue was
(§30) incorporated into the peptide structure to allow for accurate quantification of concentration.
Protocol for TRIM33α PHD-BRD: as §1, §2, §3, §4, §5, §6, §7, §8, §9, §10, §11, §12, §13, §14, §15, §16, §17, §18, §19, §20, §21, §22, §23, §24, §25, §26, §27, §28, §29, §30

In general, pIC50 refers to the IC50 on a negative log10 scale, so that one unit is a factor of ten. Lower therefore signals a large IC50. What is called pKd is −log10 of the Kd, conventionally taken in molar units. Consider `COc1ccc(Oc2cc3c(cc2NS(=O)(=O)c2ccc(OC)c(OC)c2)n(C)c(=O)n3C)cc1` [Compound 2], for which the “displacement of H3_1–27K18Ac from TRIM33α (AlphaScreen)” value at TRIM33α PHD-BRD is given as “not for either isoform of TRIM33”. Moreover, at TRIM24 PHD-BRD, the pIC50 was 6.66. Also, the figures for the pKd at TRIM24 BRD and at BRPF1 BRD were 6.65 and 6.86, respectively.
